Our source for the IC50 values is patent publication US10246453B2, “Benzenesulfonamide compounds and their use as therapeutic agents” (Xenon Pharmaceuticals Inc., priority 2016, dated 2019).

The target of data set [1] is T1, NaV1.5 (Homo sapiens (Human), UniProt Q14524). Put plainly: in vitro. Conditions: pH 7.4.
Data set [2] deals with T1, NaV1.5. Put plainly: Electrophysiological Assay (EP), patch voltage clamp, NaV1.5. Format: cell-based. The conditions noted are these: HEK-293 cells, whole-cell patch clamp, inactivated state; arithmetic mean. How it is done: Sodium currents were measured using the patch clamp technique in the whole-cell configuration using either a PatchXpress automated voltage clamp or manually using an Axopatch 200B (Axon Instruments) or Model 2400 (A-M systems) amplifier.
In some studies, the external sodium was reduced by equimolar replacement with choline. […] All recordings were performed at ambient temperature in a bath chamber with a volume of 150 μL. Control sodium currents were measured in 0.5% DMSO. Controls and representative compounds of the invention were applied to the recording chamber through a 4-pinch or 8-pinch valve bath perfusion system manufactured by ALA Scientific Instruments.
Series resistance compensation was applied (60-80%). […] All statistics in this study are given as mean±SD.
The membrane potential was maintained at a voltage where inactivation of the channel is complete. The voltage is then stepped back to a very negative (Vhold=−150 mV) voltage for 20 ms and then a test pulse is applied to quantify the compound block. […] The percent decrease in sodium current following wash-on of compound was taken as the percent block of sodium channels.
Background: The patch-clamp technique gives a direct electrical read-out from membranes.

Data set [3] deals with T1, NaV1.5. Put plainly: Sodium Influx Assay (Flux), NaV1.5. The conditions noted are these: read-out: Flux NaV1.5 IC50; Trex HEK293 cells, ANG2 dye; arithmetic mean.
For data set [4], the target named is T2, NaV1.1 (Homo sapiens (Human), UniProt P35498). Put plainly: Electrophysiological Assay (EP), patch voltage clamp, NaV1.1. Format: cell-based. Conditions: HEK-293 cells, whole-cell patch clamp, inactivated state; arithmetic mean.
For data set [5], the target named is T3, NaV1.6 (Homo sapiens (Human), UniProt Q9UQD0). Put plainly: Sodium Influx Assay (Flux), NaV1.6. Conditions: read-out: Flux NaV1.6 IC50; Trex HEK293 cells, ANG2 dye; arithmetic mean.
T3 sequence (Q9UQD0 whole entry): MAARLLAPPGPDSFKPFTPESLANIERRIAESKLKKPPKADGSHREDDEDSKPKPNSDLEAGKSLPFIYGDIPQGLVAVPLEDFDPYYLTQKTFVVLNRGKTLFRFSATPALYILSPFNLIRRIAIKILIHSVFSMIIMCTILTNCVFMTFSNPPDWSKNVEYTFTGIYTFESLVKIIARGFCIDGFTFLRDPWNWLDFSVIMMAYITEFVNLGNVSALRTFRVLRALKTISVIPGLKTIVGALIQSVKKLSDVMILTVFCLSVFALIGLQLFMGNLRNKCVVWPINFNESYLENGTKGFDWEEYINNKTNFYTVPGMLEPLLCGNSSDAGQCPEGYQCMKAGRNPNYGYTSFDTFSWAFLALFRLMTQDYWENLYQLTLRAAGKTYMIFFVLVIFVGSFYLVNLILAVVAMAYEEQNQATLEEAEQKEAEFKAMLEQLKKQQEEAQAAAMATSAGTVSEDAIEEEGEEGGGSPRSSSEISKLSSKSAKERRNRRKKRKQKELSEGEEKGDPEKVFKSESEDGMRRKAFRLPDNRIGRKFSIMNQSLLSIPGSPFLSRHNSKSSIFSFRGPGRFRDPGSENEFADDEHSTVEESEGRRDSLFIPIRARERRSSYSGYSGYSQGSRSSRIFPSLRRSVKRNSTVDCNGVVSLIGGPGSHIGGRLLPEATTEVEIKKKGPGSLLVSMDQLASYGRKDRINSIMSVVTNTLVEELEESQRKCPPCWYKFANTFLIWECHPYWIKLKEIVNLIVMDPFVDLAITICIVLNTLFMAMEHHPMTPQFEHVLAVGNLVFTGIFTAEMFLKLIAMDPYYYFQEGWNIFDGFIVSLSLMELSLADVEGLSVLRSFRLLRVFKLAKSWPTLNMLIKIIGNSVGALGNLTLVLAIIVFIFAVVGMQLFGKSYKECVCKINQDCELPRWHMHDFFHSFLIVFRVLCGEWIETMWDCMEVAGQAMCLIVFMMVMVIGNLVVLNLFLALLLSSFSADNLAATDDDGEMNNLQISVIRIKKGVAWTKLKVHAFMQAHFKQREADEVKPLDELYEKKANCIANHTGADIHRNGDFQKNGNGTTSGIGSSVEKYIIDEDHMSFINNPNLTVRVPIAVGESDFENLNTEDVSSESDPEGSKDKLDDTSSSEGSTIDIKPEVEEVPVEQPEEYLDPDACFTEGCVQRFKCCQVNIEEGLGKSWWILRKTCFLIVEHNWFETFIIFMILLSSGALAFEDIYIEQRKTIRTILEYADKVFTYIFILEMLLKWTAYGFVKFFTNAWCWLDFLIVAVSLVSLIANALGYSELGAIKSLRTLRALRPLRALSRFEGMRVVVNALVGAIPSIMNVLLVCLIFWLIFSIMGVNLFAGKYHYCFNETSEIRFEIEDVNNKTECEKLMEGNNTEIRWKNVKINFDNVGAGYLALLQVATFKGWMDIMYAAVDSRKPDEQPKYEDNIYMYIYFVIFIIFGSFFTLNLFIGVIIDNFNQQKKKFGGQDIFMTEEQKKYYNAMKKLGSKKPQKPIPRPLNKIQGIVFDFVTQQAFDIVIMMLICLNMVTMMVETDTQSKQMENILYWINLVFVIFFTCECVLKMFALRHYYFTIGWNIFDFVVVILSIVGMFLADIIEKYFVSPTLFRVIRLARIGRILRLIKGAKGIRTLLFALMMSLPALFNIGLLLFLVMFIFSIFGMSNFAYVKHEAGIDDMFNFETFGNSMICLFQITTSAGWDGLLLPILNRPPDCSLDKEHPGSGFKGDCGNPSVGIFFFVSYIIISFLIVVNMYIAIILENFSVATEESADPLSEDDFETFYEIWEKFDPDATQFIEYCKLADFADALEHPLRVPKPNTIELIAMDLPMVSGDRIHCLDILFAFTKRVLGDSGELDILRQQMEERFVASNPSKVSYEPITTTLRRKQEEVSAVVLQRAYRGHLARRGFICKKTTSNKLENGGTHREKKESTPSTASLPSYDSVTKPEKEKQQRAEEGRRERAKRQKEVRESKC
Data set [6] has as its target T3, NaV1.6. As to the kind of experiment: Electrophysiological Assay (EP), patch voltage clamp, NaV1.6. Format: cell-based. The conditions noted are these: HEK-293 cells, whole-cell patch clamp, inactivated state; arithmetic mean.
Data set [7] addresses T2, NaV1.1. As to the kind of experiment: Sodium Influx Assay (Flux), NaV1.1. The class given is cell-based. Conditions: Trex HEK293 cells, ANG2 dye; arithmetic mean.

Bounds are passed on as bounds.

T1 sequence (Q14524 other isoform, or with tags, fused parts or gaps): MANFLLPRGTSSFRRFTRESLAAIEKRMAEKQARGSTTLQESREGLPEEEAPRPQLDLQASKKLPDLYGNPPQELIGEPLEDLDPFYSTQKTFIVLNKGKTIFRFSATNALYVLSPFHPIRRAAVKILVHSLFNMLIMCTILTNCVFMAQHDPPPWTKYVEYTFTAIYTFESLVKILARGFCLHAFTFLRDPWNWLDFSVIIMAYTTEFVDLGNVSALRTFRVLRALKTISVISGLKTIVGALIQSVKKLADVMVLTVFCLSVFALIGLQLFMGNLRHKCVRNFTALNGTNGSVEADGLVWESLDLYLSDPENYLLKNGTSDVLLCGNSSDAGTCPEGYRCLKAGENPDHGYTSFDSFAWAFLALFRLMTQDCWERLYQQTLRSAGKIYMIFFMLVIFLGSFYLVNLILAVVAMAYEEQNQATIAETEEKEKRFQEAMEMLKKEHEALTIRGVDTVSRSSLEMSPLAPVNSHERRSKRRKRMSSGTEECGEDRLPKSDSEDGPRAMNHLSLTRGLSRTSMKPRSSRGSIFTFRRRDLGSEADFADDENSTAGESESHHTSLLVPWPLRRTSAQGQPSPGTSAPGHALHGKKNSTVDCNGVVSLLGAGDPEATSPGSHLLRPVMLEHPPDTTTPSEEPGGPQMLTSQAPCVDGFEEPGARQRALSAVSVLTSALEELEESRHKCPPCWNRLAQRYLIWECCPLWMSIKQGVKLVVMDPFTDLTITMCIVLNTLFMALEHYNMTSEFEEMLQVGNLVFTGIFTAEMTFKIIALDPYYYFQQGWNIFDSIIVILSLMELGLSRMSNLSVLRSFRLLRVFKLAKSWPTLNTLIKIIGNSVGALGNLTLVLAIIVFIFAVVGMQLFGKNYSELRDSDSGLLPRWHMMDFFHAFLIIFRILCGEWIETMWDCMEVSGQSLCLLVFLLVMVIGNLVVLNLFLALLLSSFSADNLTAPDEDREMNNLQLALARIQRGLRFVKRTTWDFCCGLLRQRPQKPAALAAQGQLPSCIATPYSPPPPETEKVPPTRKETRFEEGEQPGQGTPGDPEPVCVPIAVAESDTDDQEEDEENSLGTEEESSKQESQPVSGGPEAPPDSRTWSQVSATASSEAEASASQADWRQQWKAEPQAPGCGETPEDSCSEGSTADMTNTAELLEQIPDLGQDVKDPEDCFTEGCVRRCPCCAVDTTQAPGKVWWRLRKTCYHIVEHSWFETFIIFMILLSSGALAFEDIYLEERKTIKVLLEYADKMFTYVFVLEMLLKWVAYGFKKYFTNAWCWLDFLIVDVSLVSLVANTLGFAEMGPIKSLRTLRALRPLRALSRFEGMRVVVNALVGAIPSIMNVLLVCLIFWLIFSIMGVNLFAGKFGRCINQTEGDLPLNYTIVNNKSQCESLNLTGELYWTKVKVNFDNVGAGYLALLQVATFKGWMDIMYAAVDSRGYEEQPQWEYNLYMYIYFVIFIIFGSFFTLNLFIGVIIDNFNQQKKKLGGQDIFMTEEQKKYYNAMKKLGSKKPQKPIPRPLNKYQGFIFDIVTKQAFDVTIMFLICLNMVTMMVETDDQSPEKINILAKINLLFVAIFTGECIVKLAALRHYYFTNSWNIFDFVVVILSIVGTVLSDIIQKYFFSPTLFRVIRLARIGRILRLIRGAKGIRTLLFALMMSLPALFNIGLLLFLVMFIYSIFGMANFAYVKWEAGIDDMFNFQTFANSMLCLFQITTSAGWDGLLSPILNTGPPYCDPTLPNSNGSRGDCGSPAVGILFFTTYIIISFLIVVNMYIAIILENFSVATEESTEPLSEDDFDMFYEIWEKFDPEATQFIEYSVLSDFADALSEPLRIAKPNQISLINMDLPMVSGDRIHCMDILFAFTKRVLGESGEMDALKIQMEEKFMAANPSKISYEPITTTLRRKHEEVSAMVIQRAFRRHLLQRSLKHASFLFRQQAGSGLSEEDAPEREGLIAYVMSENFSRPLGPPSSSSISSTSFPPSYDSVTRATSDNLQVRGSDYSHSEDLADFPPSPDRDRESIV

At NaV1.5 [1], `C[C@@H]1[C@H](N(C)c2cc(F)c(S(=O)(=O)Nc3cscn3)cc2Cl)CCN1Cc1ccccc1` (racemic) [Example 309, rac-4-(((2R,3R)-1-benzyl-2-methylpyrrolidin-3-yl)(methyl)amino)-5-chloro-2-fluoro-N-(thiazol-4-yl)benzenesulfonamide] gave a half-maximal inhibitory concentration (IC50) at 1 h of 7.35 µM.

Turning to `Cc1c(N(C)[C@H]2CCN(Cc3ccccc3)C2)cc(F)c(S(=O)(=O)Nc2cscn2)c1F` [Example 103, (S)-4-((1-benzylpyrrolidin-3-yl)(methyl)amino)-2,6-difluoro-3-methyl-N-(thiazol-4-yl)benzenesulfonamide 2,2,2-trifluoroacetate], the half-maximal inhibitory concentration (IC50) is more than 10 µM against NaV1.5 [2]; 28.2 µM at NaV1.5 [3]; 40.9 µM at NaV1.1 [4]; 0.061 µM on NaV1.6 [5]; 0.017 µM against NaV1.6 [6]; 28.5 µM at NaV1.1 [7].

The IC50 is the concentration that inhibits the measured activity by half.
